Activity calls are given as the source filed them. How the calls were made is not given here.
Test system: CCRIS mutagenicity, Ames/micronucleus/aberration tests
Assay: CCRIS mutagenicity studies
[1] = Test System: AMES SALMONELLA TYPHIMURIUM, Strain/Indicator: TA98, Metabolic Activation: HAMSTER, LIVER, S-9, AROCLOR 1254 (10%), Method: PREINCUBATION
[2] = Test System: AMES SALMONELLA TYPHIMURIUM, Strain/Indicator: TA98, Metabolic Activation: NONE, Method: PREINCUBATION
[3] = Test System: AMES SALMONELLA TYPHIMURIUM, Strain/Indicator: TA98, Metabolic Activation: RAT, LIVER, S-9, AROCLOR 1254 (10%), Method: PREINCUBATION
[4] = Test System: AMES SALMONELLA TYPHIMURIUM, Strain/Indicator: TA100, Metabolic Activation: NONE, Method: PREINCUBATION
[5] = Test System: AMES SALMONELLA TYPHIMURIUM, Strain/Indicator: TA100, Metabolic Activation: RAT, LIVER, S-9, AROCLOR 1254 (10%), Method: PREINCUBATION
[6] = Test System: AMES SALMONELLA TYPHIMURIUM, Strain/Indicator: TA1535, Metabolic Activation: HAMSTER, LIVER, S-9, AROCLOR 1254 (10%), Method: PREINCUBATION
[7] = Test System: AMES SALMONELLA TYPHIMURIUM, Strain/Indicator: TA1535, Metabolic Activation: NONE, Method: PREINCUBATION
[8] = Test System: AMES SALMONELLA TYPHIMURIUM, Strain/Indicator: TA1535, Metabolic Activation: RAT, LIVER, S-9, AROCLOR 1254 (10%), Method: PREINCUBATION
[9] = Test System: AMES SALMONELLA TYPHIMURIUM, Strain/Indicator: TA1537, Metabolic Activation: HAMSTER, LIVER, S-9, AROCLOR 1254 (10%), Method: PREINCUBATION
[10] = Test System: AMES SALMONELLA TYPHIMURIUM, Strain/Indicator: TA1537, Metabolic Activation: NONE, Method: PREINCUBATION
[11] = Test System: AMES SALMONELLA TYPHIMURIUM, Strain/Indicator: TA1537, Metabolic Activation: RAT, LIVER, S-9, AROCLOR 1254 (10%), Method: PREINCUBATION
[12] = Test System: AMES SALMONELLA TYPHIMURIUM, Strain/Indicator: TA100, Metabolic Activation: NONE, Method: STANDARD PLATE

**Q.** With `Nc1ccc(C(=O)O)cc1` as the compound, how does the mutagenic call [1] read?
**A.** inactive; negative

**Q.** What about the mutagenic call [2] of the same compound?
**A.** inactive; negative

**Q.** What about the mutagenic call [3] of the same compound?
**A.** inactive; negative

**Q.** What about the mutagenic call (Test System: AMES SALMONELLA TYPHIMURIUM, Strain/Indicator: TA100, Metabolic Activation: HAMSTER, LIVER, S-9, AROCLOR 1254 (10%), Method: PREINCUBATION) of the same compound?
**A.** inactive; negative

**Q.** And the mutagenic call [4]?
**A.** inactive; negative

**Q.** What about the mutagenic call [5] of the same compound?
**A.** inactive; negative

**Q.** What about the mutagenic call [6] of the same compound?
**A.** inactive; negative

**Q.** What about the mutagenic call [7] of the same compound?
**A.** inactive; negative

**Q.** And the mutagenic call [8]?
**A.** inactive; negative

**Q.** And the mutagenic call [9]?
**A.** inactive; negative

**Q.** What about the mutagenic call [10] of the same compound?
**A.** inactive; negative

**Q.** What about the mutagenic call [11] of the same compound?
**A.** inactive; negative

**Q.** Which mutagenic call (Test System: AMES SALMONELLA TYPHIMURIUM, Strain/Indicator: TA97, Metabolic Activation: NONE, Method: PREINCUBATION) does the source give for `CC(=O)c1ccc2ccccc2c1` here?
**A.** inactive; negative

**Q.** What about the mutagenic call (Test System: AMES SALMONELLA TYPHIMURIUM, Strain/Indicator: TA97, Metabolic Activation: RAT, LIVER, S-9, AROCLOR 1254, Method: PREINCUBATION) of the same compound?
**A.** inactive; negative

**Q.** What about the mutagenic call (Test System: AMES SALMONELLA TYPHIMURIUM, Strain/Indicator: TA102, Metabolic Activation: NONE, Method: PREINCUBATION) of the same compound?
**A.** inactive; negative

**Q.** What about the mutagenic call (Test System: AMES SALMONELLA TYPHIMURIUM, Strain/Indicator: TA102, Metabolic Activation: RAT, LIVER, S-9, AROCLOR 1254, Method: PREINCUBATION) of the same compound?
**A.** inactive; negative

**Q.** What does the source list for `CC(=O)O[C@H]1[C@H]2O[C@H]2C2=CC(=O)[C@]3(C[C@]2(C)[C@H]1C)O[C@]3(C)C=O`?
**A.** mutagenic call [2]: active; positive; mutagenic call (Test System: AMES SALMONELLA TYPHIMURIUM, Strain/Indicator: TA98, Metabolic Activation: RAT, LIVER, S-9, PHENOBARBITAL AND BETA-NAPHTHOFLAVONE, Method: PREINCUBATION): inactive; negative; mutagenic call [4]: inactive; negative; mutagenic call (Test System: AMES SALMONELLA TYPHIMURIUM, Strain/Indicator: TA100, Metabolic Activation: RAT, LIVER, MICROSOMES, PHENOBARBITAL, Method: STANDARD PLATE): active; positive; mutagenic call (Test System: AMES SALMONELLA TYPHIMURIUM, Strain/Indicator: TA100, Metabolic Activation: RAT, LIVER, S-9, PHENOBARBITAL AND BETA-NAPHTHOFLAVONE, Method: PREINCUBATION): inactive; negative; mutagenic call (Test System: AMES SALMONELLA TYPHIMURIUM, Strain/Indicator: TA100, Metabolic Activation: RAT, LIVER, S-9, PHENOBARBITAL, Method: PREINCUBATION): inactive; negative; mutagenic call [7]: inactive; negative; mutagenic call (Test System: AMES SALMONELLA TYPHIMURIUM, Strain/Indicator: TA1535, Metabolic Activation: RAT, LIVER, S-9, PHENOBARBITAL AND BETA-NAPHTHOFLAVONE, Method: PREINCUBATION): inactive; negative; mutagenic call [10]: inactive; negative; mutagenic call (Test System: AMES SALMONELLA TYPHIMURIUM, Strain/Indicator: TA1537, Metabolic Activation: RAT, LIVER, S-9, PHENOBARBITAL AND BETA-NAPHTHOFLAVONE, Method: PREINCUBATION): inactive; negative; mutagenic call (Test System: AMES SALMONELLA TYPHIMURIUM, Strain/Indicator: TA1538, Metabolic Activation: NONE, Method: PREINCUBATION): inactive; negative; mutagenic call (Test System: AMES SALMONELLA TYPHIMURIUM, Strain/Indicator: TA1538, Metabolic Activation: RAT, LIVER, S-9, PHENOBARBITAL AND BETA-NAPHTHOFLAVONE, Method: PREINCUBATION): inactive; negative

**Q.** With `O=C1C=CC(=O)C1(Cl)Cl` as the compound, how does the mutagenic call [12] read?
**A.** active; positive

**Q.** `Nc1cc([N+](=O)[O-])ccc1O` was tested. Which mutagenic call (End Point: IN VITRO CHROMOSOMAL ABERRATIONS, Test System: CHO CELLS, Metabolic Activation: NONE) did it give?
**A.** active; positive; precipitation occurred at all concentrations

**Q.** And the mutagenic call (End Point: IN VITRO CHROMOSOMAL ABERRATIONS, Test System: CHO CELLS, Metabolic Activation: RAT, LIVER, S-9, AROCLOR 1254)?
**A.** active; positive; precipitation occurred at both concentrations

**Q.** What about the mutagenic call [1] of the same compound?
**A.** active; positive

**Q.** What about the mutagenic call (Test System: AMES SALMONELLA TYPHIMURIUM, Strain/Indicator: TA98, Metabolic Activation: HAMSTER, LIVER, S-9, AROCLOR 1254, Method: PREINCUBATION) of the same compound?
**A.** active; positive

**Q.** And the mutagenic call [2]?
**A.** inactive; negative

**Q.** What about the mutagenic call [3] of the same compound?
**A.** inactive; negative

**Q.** What about the mutagenic call (Test System: AMES SALMONELLA TYPHIMURIUM, Strain/Indicator: TA98, Metabolic Activation: RAT, LIVER, S-9, AROCLOR 1254, Method: PREINCUBATION) of the same compound?
**A.** inactive; negative

**Q.** What about the mutagenic call [5] of the same compound?
**A.** inactive; negative

**Q.** What about the mutagenic call (Test System: AMES SALMONELLA TYPHIMURIUM, Strain/Indicator: TA100, Metabolic Activation: RAT, LIVER, S-9, AROCLOR 1254, Method: PREINCUBATION) of the same compound?
**A.** inactive; negative

**Q.** And the mutagenic call [6]?
**A.** inactive; negative

**Q.** What about the mutagenic call (Test System: AMES SALMONELLA TYPHIMURIUM, Strain/Indicator: TA1535, Metabolic Activation: HAMSTER, LIVER, S-9, AROCLOR 1254, Method: PREINCUBATION) of the same compound?
**A.** inactive; negative

**Q.** And the mutagenic call [8]?
**A.** inactive; negative

**Q.** What about the mutagenic call (Test System: AMES SALMONELLA TYPHIMURIUM, Strain/Indicator: TA1535, Metabolic Activation: RAT, LIVER, S-9, AROCLOR 1254, Method: PREINCUBATION) of the same compound?
**A.** inactive; negative

**Q.** And the mutagenic call [9]?
**A.** inactive; negative

**Q.** And the mutagenic call (Test System: AMES SALMONELLA TYPHIMURIUM, Strain/Indicator: TA1537, Metabolic Activation: HAMSTER, LIVER, S-9, AROCLOR 1254, Method: PREINCUBATION)?
**A.** inactive; negative

**Q.** What about the mutagenic call [11] of the same compound?
**A.** inactive; negative

**Q.** And the mutagenic call (Test System: AMES SALMONELLA TYPHIMURIUM, Strain/Indicator: TA1537, Metabolic Activation: RAT, LIVER, S-9, AROCLOR 1254, Method: PREINCUBATION)?
**A.** inactive; negative

**Q.** And the mutagenic call (Test System: MOUSE LYMPHOMA, Strain/Indicator: L5178Y (TK+/TK-), Metabolic Activation: NONE, Method: SUSPENSION/PLATE)?
**A.** active; positive

**Q.** `c1ccc2c(c1)oc1ccccc12` was tested. Which mutagenic call (End Point: IN VITRO CHROMOSOMAL ABERRATIONS, Test System: CHINESE HAMSTER OVARY CELLS, Metabolic Activation: NONE) did it give?
**A.** inactive; negative

**Q.** What about the mutagenic call (End Point: IN VITRO CHROMOSOMAL ABERRATIONS, Test System: CHINESE HAMSTER OVARY CELLS, Metabolic Activation: RAT, LIVER, S-9, AROCLOR 1254) of the same compound?
**A.** inactive; negative

**Q.** And the mutagenic call (Test System: AMES SALMONELLA TYPHIMURIUM, Strain/Indicator: TA98, Metabolic Activation: HAMSTER LIVER S-9, AROCLOR 1254, Method: STANDARD PLATE)?
**A.** inactive; negative

**Q.** What about the mutagenic call (Test System: AMES SALMONELLA TYPHIMURIUM, Strain/Indicator: TA98, Metabolic Activation: NONE, Method: STANDARD PLATE) of the same compound?
**A.** inactive; negative

**Q.** What about the mutagenic call (Test System: AMES SALMONELLA TYPHIMURIUM, Strain/Indicator: TA98, Metabolic Activation: RAT LIVER S-9, AROCLOR 1254, Method: STANDARD PLATE) of the same compound?
**A.** inactive; negative

**Q.** And the mutagenic call (Test System: AMES SALMONELLA TYPHIMURIUM, Strain/Indicator: TA98, Metabolic Activation: RAT, LIVER, S-9, PHENOBARBITAL AND NAPHTHOFLAVONE, Method: STANDARD PLATE)?
**A.** inactive; negative

**Q.** And the mutagenic call (Test System: AMES SALMONELLA TYPHIMURIUM, Strain/Indicator: TA98, Metabolic Activation: S-9, PHENOBARBITAL AND 5,6-BENZOFLAVONE, Method: STANDARD PLATE)?
**A.** inactive; negative

**Q.** And the mutagenic call (Test System: AMES SALMONELLA TYPHIMURIUM, Strain/Indicator: TA100, Metabolic Activation: HAMSTER LIVER S-9, AROCLOR 1254, Method: STANDARD PLATE)?
**A.** inactive; negative

**Q.** What about the mutagenic call [12] of the same compound?
**A.** inactive; negative

**Q.** What about the mutagenic call (Test System: AMES SALMONELLA TYPHIMURIUM, Strain/Indicator: TA100, Metabolic Activation: RAT LIVER S-9, AROCLOR 1254, Method: STANDARD PLATE) of the same compound?
**A.** inactive; negative

**Q.** And the mutagenic call (Test System: AMES SALMONELLA TYPHIMURIUM, Strain/Indicator: TA100, Metabolic Activation: RAT, LIVER, S-9, PHENOBARBITAL AND NAPHTHOFLAVONE, Method: STANDARD PLATE)?
**A.** inactive; negative

**Q.** And the mutagenic call (Test System: AMES SALMONELLA TYPHIMURIUM, Strain/Indicator: TA100, Metabolic Activation: S-9, PHENOBARBITAL AND 5,6-BENZOFLAVONE, Method: STANDARD PLATE)?
**A.** inactive; negative
